Laboratory results reported in US12187723B2 (BRISTOL-MYERS SQUIBB COMPANY, priority 2019, dated 2025).

Target: T1, human TLR9 (Homo sapiens, UniProt Q9NR96)
T1 construct: host or cells: HEK-Blue cells
T1 sequence (Q9NR96 26-1032): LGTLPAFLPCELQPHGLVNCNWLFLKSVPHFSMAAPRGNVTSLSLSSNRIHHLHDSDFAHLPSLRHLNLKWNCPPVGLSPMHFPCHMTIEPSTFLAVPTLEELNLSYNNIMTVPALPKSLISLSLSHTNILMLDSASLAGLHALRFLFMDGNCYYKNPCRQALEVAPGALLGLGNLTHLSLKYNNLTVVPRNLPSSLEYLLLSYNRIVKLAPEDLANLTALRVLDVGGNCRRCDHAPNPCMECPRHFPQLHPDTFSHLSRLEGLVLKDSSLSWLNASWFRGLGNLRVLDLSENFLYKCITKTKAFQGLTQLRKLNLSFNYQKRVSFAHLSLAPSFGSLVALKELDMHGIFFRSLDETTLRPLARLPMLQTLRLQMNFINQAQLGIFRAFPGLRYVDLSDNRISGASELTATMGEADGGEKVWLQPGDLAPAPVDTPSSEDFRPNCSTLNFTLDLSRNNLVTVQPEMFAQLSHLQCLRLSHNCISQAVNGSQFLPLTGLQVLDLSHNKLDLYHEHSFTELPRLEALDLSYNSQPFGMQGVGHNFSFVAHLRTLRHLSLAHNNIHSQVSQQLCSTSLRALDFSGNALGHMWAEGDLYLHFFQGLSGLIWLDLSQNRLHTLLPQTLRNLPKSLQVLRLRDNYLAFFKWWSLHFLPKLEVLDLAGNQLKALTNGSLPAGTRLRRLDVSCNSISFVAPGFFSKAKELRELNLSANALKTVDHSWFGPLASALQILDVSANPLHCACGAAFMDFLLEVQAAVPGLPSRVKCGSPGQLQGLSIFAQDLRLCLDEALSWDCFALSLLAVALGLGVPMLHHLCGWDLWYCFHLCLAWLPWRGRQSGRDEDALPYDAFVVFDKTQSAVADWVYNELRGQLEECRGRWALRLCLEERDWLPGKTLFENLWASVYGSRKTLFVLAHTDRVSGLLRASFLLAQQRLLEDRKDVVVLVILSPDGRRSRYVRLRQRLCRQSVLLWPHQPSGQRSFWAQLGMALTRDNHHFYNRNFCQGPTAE
Assay: TLR9 inhibition reporter assay (HEK-Blue SEAP)
Type: cell-based
Conditions: HEK-Blue cells overexpressing human TLR9, ODN2006 5 nM, 22 hour incubation
Summary of the method: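 Human TLR7/8/9 HEK-Blue reporter lines; dose range 0.05 nM–50 μM; 30 min RT preincubation; stimulus gardiquimod 7.5 μM / R848 15.9 μM / ODN2006 5 nM respectively; 22 h, 37 °C; SEAP detected colorimetrically.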

| SMILES | IC50 [µM] |
| --- | --- |
| CCc1cc2c(cc1-c1cc(OC)c3ncnn3c1)[nH]c(=O)n2[C@@H]1CCCN(CC2CCOCC2)C1 [Example 175, (R)-6-ethyl-5-(8-methoxy-[1,2,4]triazolo[1,5-a]pyridin-6-yl)-1-(1-((tetrahydro-2H-pyran-4-yl)methyl)piperidin-3-yl)-1,3-dihydro-2H-benzo[d]imidazol-2-one] | 7.39 |
| CCc1cc2c(cc1-c1cc(OC)c3ncnn3c1)[nH]c(=O)n2[C@@H]1CCCN(CC(C)C)C1 [Example 177, (R)-6-ethyl-1-(1-isobutylpiperidin-3-yl)-5-(8-methoxy-[1,2,4]triazolo[1,5-a]pyridin-6-yl)-1,3-dihydro-2H-benzo[d]imidazol-2-one] | 10.7 |
| CCc1cc2c(cc1-c1cc(OC)c3ncnn3c1)[nH]c(=O)n2[C@@H]1CCCN(CC(CC)CC)C1 [Example 178, (R)-6-ethyl-1-(1-(2-ethylbutyl)piperidin-3-yl)-5-(8-methoxy-[1,2,4]triazolo[1,5-a]pyridin-6-yl)-1,3-dihydro-2H-benzo[d]imidazol-2-one] | 7.47 |
| CCCN1CCC[C@@H](n2c(=O)[nH]c3cc(-c4cc(OC)c5ncnn5c4)c(CC)cc32)C1 [Example 179, (R)-6-ethyl-5-(8-methoxy-[1,2,4]triazolo[1,5-a]pyridin-6-yl)-1-(1-propylpiperidin-3-yl)-1,3-dihydro-2H-benzo[d]imidazol-2-one] | 6.86 |
| CCc1cc2c(cc1-c1cc(OC)c3ncnn3c1)[nH]c(=O)n2[C@@H]1CCCN(CC(C)(C)C)C1 [Example 180, (R)-6-ethyl-5-(8-methoxy-[1,2,4]triazolo[1,5-a]pyridin-6-yl)-1-(1-neopentylpiperidin-3-yl)-1,3-dihydro-2H-benzo[d]imidazol-2-one] | 10.3 |
| CCc1cc2c(cc1-c1cc(OC)c3ncnn3c1)[nH]c(=O)n2[C@@H]1CCCN(CC2CCC2)C1 [Example 181, (R)-1-(1-(cyclobutylmethyl)piperidin-3-yl)-6-ethyl-5-(8-methoxy-[1,2,4]triazolo[1,5-a]pyridin-6-yl)-1,3-dihydro-2H-benzo[d]imidazol-2-one] | 6.77 |
| CCc1cc2c(cc1-c1cc(OC)c3ncnn3c1)[nH]c(=O)n2[C@@H]1CCCN(CC2CC2)C1 [Example 182, (R)-1-(1-(cyclopropylmethyl)piperidin-3-yl)-6-ethyl-5-(8-methoxy-[1,2,4]triazolo[1,5-a]pyridin-6-yl)-1,3-dihydro-2H-benzo[d]imidazol-2-one] | 7.94 |
| CCc1cc2c(cc1-c1cc(OC)c3ncnn3c1)[nH]c(=O)n2[C@@H]1CCCN(CCC(F)(F)F)C1 [Example 183, (R)-6-ethyl-5-(8-methoxy-[1,2,4]triazolo[1,5-a]pyridin-6-yl)-1-(1-(3,3,3-trifluoropropyl)piperidin-3-yl)-1,3-dihydro-2H-benzo[d]imidazol-2-one] | 33.5 |
| CCc1cc2c(cc1-c1cc(OC)c3ncnn3c1)[nH]c(=O)n2[C@@H]1CCCN(C2CCOCC2)C1 [Example 184, (R)-6-ethyl-5-(8-methoxy-[1,2,4]triazolo[1,5-a]pyridin-6-yl)-1-(1-(tetrahydro-2H-pyran-4-yl)piperidin-3-yl)-1,3-dihydro-2H-benzo[d]imidazol-2-one] | 26.6 |
| Cc1c(-c2cc3[nH]c(=O)n([C@H]4CC[C@@H](N(C)C)CC4)c3cc2C(C)C)cn2ncnc2c1C [Example 185, 5-(7,8-dimethyl-[1,2,4]triazolo[1,5-a]pyridin-6-yl)-1-((1s,4s)-4-(dimethylamino)cyclohexyl)-6-isopropyl-1,3-dihydro-2H-benzo[d]imidazol-2-one] | 7.07 |
| Cc1c(-c2cc3[nH]c(=O)n([C@H]4CC[C@@H](NC(C)C)CC4)c3cc2C(C)C)cn2ncnc2c1C [Example 186, 5-(7,8-dimethyl-[1,2,4]triazolo[1,5-a]pyridin-6-yl)-6-isopropyl-1-((1s,4s)-4-(isopropylamino)cyclohexyl)-1,3-dihydro-2H-benzo[d]imidazol-2-one] | 5.99 |
| Cc1c(-c2cc3[nH]c(=O)n([C@H]4CC[C@@H](NC5CCOCC5)CC4)c3cc2C(C)C)cn2ncnc2c1C [Example 187, 5-(7,8-dimethyl-[1,2,4]triazolo[1,5-a]pyridin-6-yl)-6-isopropyl-1-((1s,4s)-4-((tetrahydro-2H-pyran-4-yl)amino)cyclohexyl)-1,3-dihydro-2H-benzo[d]imidazol-2-one] | 12.8 |
| Cc1c(-c2cc3[nH]c(=O)n([C@H]4CC[C@@H](NC5COC5)CC4)c3cc2C(C)C)cn2ncnc2c1C [Example 188, 5-(7,8-dimethyl-[1,2,4]triazolo[1,5-a]pyridin-6-yl)-6-isopropyl-1-((1s,4s)-4-(oxetan-3-ylamino)cyclohexyl)-1,3-dihydro-2H-benzo[d]imidazol-2-one] | 22.2 |
| CCN[C@H]1CC[C@@H](n2c(=O)[nH]c3cc(-c4cn5ncnc5c(C)c4C)c(C(C)C)cc32)CC1 [Example 189, 5-(7,8-dimethyl-[1,2,4]triazolo[1,5-a]pyridin-6-yl)-1-((1s,4s)-4-(ethylamino)cyclohexyl)-6-isopropyl-1,3-dihydro-2H-benzo[d]imidazol-2-one] | > 50 |
| Cc1c(-c2cc3[nH]c(=O)n([C@H]4CC[C@@H](NCC(C)(C)C)CC4)c3cc2C(C)C)cn2ncnc2c1C [Example 190, 5-(7,8-dimethyl-[1,2,4]triazolo[1,5-a]pyridin-6-yl)-6-isopropyl-1-((1s,4s)-4-(neopentylamino)cyclohexyl)-1,3-dihydro-2H-benzo[d]imidazol-2-one] | 5.05 |

The next lines start with the values.

| IC50 [µM] | SMILES |
| --- | --- |
| 11.7 | COc1cc(-c2cc3[nH]c(=O)n([C@H]4CC[C@@H](N(C)C)CC4)c3cc2C(C)C)cn2ncnc12 [Example 191, 1-((1s,4s)-4-(dimethylamino)cyclohexyl)-6-isopropyl-5-(8-methoxy-[1,2,4]triazolo[1,5-a]pyridin-6-yl)-1,3-dihydro-2H-benzo[d]imidazol-2-one] |
| 16.6 | COc1cc(-c2cc3[nH]c(=O)n([C@H]4CC[C@@H](NC(C)C)CC4)c3cc2C(C)C)cn2ncnc12 [Example 192, 6-isopropyl-1-((1s,4s)-4-(isopropylamino)cyclohexyl)-5-(8-methoxy-[1,2,4]triazolo[1,5-a]pyridin-6-yl)-1,3-dihydro-2H-benzo[d]imidazol-2-one] |
| 21.4 | COc1cc(-c2cc3[nH]c(=O)n([C@H]4CC[C@@H](NC5CCOCC5)CC4)c3cc2C(C)C)cn2ncnc12 [Example 193, 6-isopropyl-5-(8-methoxy-[1,2,4]triazolo[1,5-a]pyridin-6-yl)-1-((1s,4s)-4-((tetrahydro-2H-pyran-4-yl)amino)cyclohexyl)-1,3-dihydro-2H-benzo[d]imidazol-2-one] |
| 2.08 | CCC(CC)CN[C@H]1CC[C@@H](n2c(=O)[nH]c3cc(-c4cc(OC)c5ncnn5c4)c(C(C)C)cc32)CC1 [Example 194] |
| 13.9 | CCCN[C@H]1CC[C@@H](n2c(=O)[nH]c3cc(-c4cc(OC)c5ncnn5c4)c(C(C)C)cc32)CC1 [Example 195, 6-isopropyl-5-(8-methoxy-[1,2,4]triazolo[1,5-a]pyridin-6-yl)-1-((1 s,4s)-4-(propylamino)cyclohexyl)-1,3-dihydro-2H-benzo[d]imidazol-2-one] |
| 8.96 | COc1cc(-c2cc3[nH]c(=O)n([C@H]4CC[C@@H](NCC5CCOCC5)CC4)c3cc2C(C)C)cn2ncnc12 [Example 196, 6-isopropyl-5-(8-methoxy-[1,2,4]triazolo[1,5-a]pyridin-6-yl)-1-((1s,4s)-4-(((tetrahydro-2H-pyran-4-yl)methyl)amino)cyclohexyl)-1,3-dihydro-2H-benzo[d]imidazol-2-one] |
| 6.26 | COc1cc(-c2cc3[nH]c(=O)n([C@H]4CC[C@@H](NCC(C)(C)C)CC4)c3cc2C(C)C)cn2ncnc12 [Example 197, 6-isopropyl-5-(8-methoxy-[1,2,4]triazolo[1,5-a]pyridin-6-yl)-1-((1s,4s)-4-(neopentylamino)cyclohexyl)-1,3-dihydro-2H-benzo[d]imidazol-2-one] |
| 2.13 | CCC(CC)CN[C@H]1CC[C@@H](n2c(=O)[nH]c3cc(-c4cn5ncnc5c(C)c4C)c(C(C)C)cc32)CC1 [Example 198] |
| 3.37 | CCCN(CCC)[C@H]1CC[C@@H](n2c(=O)[nH]c3cc(-c4cn5ncnc5c(C)c4C)c(C(C)C)cc32)CC1 [Example 199, 5-(7,8-dimethyl-[1,2,4]triazolo[1,5-a]pyridin-6-yl)-1-((1s,4s)-4-(dipropylamino)cyclohexyl)-6-isopropyl-1,3-dihydro-2H-benzo[d]imidazol-2-one] |
